The values that follow come from PubChem BioAssay AID1996.

≈ marks a conversion by molar mass, not a printed value.

For this data set the following is noted: buffer; pH 7.4; 200.0 µM.
As to `CC(C)(C)C(=O)Nc1ccccc1-c1nc2ccccc2[nH]c1=O`, the solubility (kinetic) (as a rule, the concentration staying in solution when a stock, usually in DMSO, is diluted into the medium) is more than 48.2 µg/mL.
To `O=C(O)c1ccccc1Nc1ccc(OC(F)F)cc1` belongs more than 41.9 µg/mL.
In the case of `O=C(c1ccncc1)N1CCN(S(=O)(=O)c2ccc(F)cc2)CC1`, the solubility (kinetic) was more than 52.4 µg/mL.
To `COc1ccccc1NC(=O)c1ccc2c(=O)n3c(nc2c1)CCC3` belongs 13.2 µg/mL (≈ 39.4 µM); to `COc1ccc(NC(=O)c2cccc(Cl)c2)c[n+]1[O-]`, more than 41.8 µg/mL.
Compound `O=C(O)/C=C/c1cccc(NC(=O)c2ccccc2)c1` displayed a kinetic solubility of 34 µg/mL (≈ 127 µM).
To `O=S(=O)(c1ccc(F)c(F)c1F)N1CCN(c2ncnc3sccc23)CC1` belongs 2.5 µg/mL (≈ 6.03 µM); to `CCOC(=O)c1ccc(Nc2ncnc3ccccc23)cc1.Cl`, 1.7 µg/mL; to `Nc1ccccc1N=c1ssnc1Cl`, more than 36.6 µg/mL.
On to `NS(=O)(=O)c1ccc(NC(=O)C2C3C=CC(C3)C2C(=O)O)cc1` (stereo not drawn), for which the kinetic solubility was more than 50.5 µg/mL.
To `Cc1cccc(NC(=O)CNC(=O)COC(=O)C2CC2C)c1C` (stereo not drawn) belongs more than 47.8 µg/mL.
In turn, `COc1ccc2nc(NC(=O)C34CC5CC(CC(NC(C)=O)(C5)C3)C4)sc2c1` showed a kinetic solubility of 41.2 µg/mL (≈ 103 µM).
In the case of `Cc1cc(C(=O)CCl)c(C)n1-c1ccon1`, the kinetic solubility amounted to 33.7 µg/mL (≈ 141 µM).
In turn, `CCCN(CCC)C(=O)Nc1cc(Cl)ccc1OC` registered a solubility (kinetic) of 31.9 µg/mL (≈ 112 µM).
As for `O=C(COC(=O)c1cc(=O)[nH]c2ccccc12)Nc1ccccc1F`, the kinetic solubility turned out to be 19.7 µg/mL (≈ 57.9 µM).
In the case of `CN(C)c1ccc(-c2nc3cc(N)ccc3o2)cc1`, the solubility (kinetic) amounted to 14 µg/mL (≈ 55.3 µM).
Compound `CCN(CC)c1ccc(NC(=O)CSC(=O)c2ccccc2)cc1.O=S(=O)(O)O` showed a solubility (kinetic) of 4.1 µg/mL.
`CC(=O)n1cc(Nc2ccc([N+](=O)[O-])cc2)c2ccccc21`: the kinetic solubility was determined as 4.6 µg/mL (≈ 15.6 µM).
To `Cc1ccsc1C(=O)OCC(=O)NCCc1ccccc1` belongs 10.4 µg/mL (≈ 34.3 µM); to `Cl.O=C(COc1ccc(F)cc1)NCCCn1ccnc1`, 39.1 µg/mL.
As for `O=C(O)c1ccc(S(=O)(=O)NCC2CCCO2)cc1` (stereo not drawn), the figure is 34.7 µg/mL (≈ 122 µM); as for `CCc1ccc(S(=O)(=O)NCc2csc(C)n2)cc1`, more than 44.5 µg/mL.
With `O=C(Nc1ccccc1-c1ccccc1)c1ccccc1`, the kinetic solubility is more than 41 µg/mL.
The compound `CCCCCCCCNC1=CC(=O)CC(C)(C)C1` gave a kinetic solubility of 12.5 µg/mL (≈ 49.7 µM).
As to `COC(=O)c1cnc(Oc2c(Cl)cc(N)cc2Cl)cc1C(F)(F)F`, the solubility (kinetic) came to 15.3 µg/mL (≈ 40.1 µM).
`[O-][N+]1=c2ccc(Nc3ccccc3)cc2=NC12CCCCC2` registered a kinetic solubility of less than 0.2 µg/mL.
In turn, `Cc1ccc(NC(=O)NCc2ccc3[nH]c(C)cc3c2)cc1` returned a solubility (kinetic) of 2.9 µg/mL (≈ 9.89 µM).
With `CC1(C)Cc2cccc(C(=O)NC3CCN(Cc4ccccc4)CC3)c2O1`, the kinetic solubility turned out to be 53.2 µg/mL (≈ 146 µM).
With `CC(C)CCNC(=O)CSc1nc2ccccc2s1`, the kinetic solubility is 38.6 µg/mL (≈ 131 µM).
To `Cc1csc(CN(C)C(=O)C2CCC(=O)N(CCN(C)C)C2)n1` (stereo not drawn) belongs 32.9 µg/mL (≈ 97.2 µM).
Consider `COc1ccc2occ(C(=O)c3ccc(N)cc3)c2c1`, for which the kinetic solubility stood at 1.7 µg/mL (≈ 6.36 µM).
With `CC(Sc1nncn1C)C(=O)Nc1ccc(S(N)(=O)=O)cc1` (stereo not drawn), the solubility (kinetic) was more than 51.2 µg/mL.
Compound `O=C(CN1C(=O)NC(CCc2ccccc2)C1=O)Nc1ccccc1C(F)(F)F` (stereo not drawn) had a kinetic solubility of 5.2 µg/mL (≈ 12.8 µM).
`NS(=O)(=O)c1cc(C(=O)NCCc2ccccn2)ccc1Cl` gave a kinetic solubility of 49.1 µg/mL (≈ 144 µM).
On to `COc1ccc(Cl)cc1NC(=S)NCCO`, for which the solubility (kinetic) was more than 39.1 µg/mL.
For the compound `CC(C)COc1ccc(Cc2c(O)[nH]c(=S)[nH]c2=O)cc1`, the solubility (kinetic) worked out at 28.9 µg/mL (≈ 94.3 µM).
Compound `CC(=O)c1ccc(Nc2ccc([N+](=O)[O-])c3nonc23)cc1` displayed a kinetic solubility of 4.2 µg/mL (≈ 14.1 µM).
To `O=C(Nc1ccc(Cl)c(Cl)c1)Nc1ccccn1` belongs less than 0.2 µg/mL.
As to `O=[N+]([O-])c1cccc(S(=O)(=O)NCCc2cccs2)c1`, the kinetic solubility was more than 46.9 µg/mL.
To `COc1cc(CCC(=O)OCC(=O)NCCc2ccc(S(N)(=O)=O)cc2)cc(OC)c1OC` belongs more than 72.1 µg/mL.
As for `CCC(COC(C)=O)Nc1nc2c([nH]1)c(=O)n(C)c(=O)n2C` (stereo not drawn), the solubility (kinetic) was more than 46.4 µg/mL.
For the compound `Cc1ccccc1OCC(=O)NCCNC(=O)c1ccccn1`, the kinetic solubility was more than 47 µg/mL.
Compound `Cc1cccc(C)c1NC1=NCCCCC1` showed a kinetic solubility of more than 32.4 µg/mL.
In turn, `CC(C)(Cc1ccc(O)cc1)NC(=O)c1ccccc1` showed a kinetic solubility of 36.7 µg/mL (≈ 136 µM).
For the compound `CCOC(=O)Cn1nc(C)cc1NC(=O)c1ccncc1`, the solubility (kinetic) was more than 43.2 µg/mL.
To `COc1ccc(-n2c(C)cc3cc(OC(C)=O)ccc32)cc1` belongs 0.7 µg/mL (≈ 2.37 µM).
`COc1ccccc1NC(=O)COc1cccc2c1CCNC2=O` registered a solubility (kinetic) of 6.9 µg/mL (≈ 21.1 µM).
`COc1ccc(N=C2NC(=O)C(CO)(CO)S2)cc1` had a kinetic solubility of more than 42.3 µg/mL.
In the case of `CCOc1ccccc1N1CCN(C(=O)c2ccc3nc(N)sc3c2)CC1`, the solubility (kinetic) turned out to be 7.5 µg/mL (≈ 19.6 µM).
To `COc1ccc(NC(=O)CSc2ncnc3sc(C)cc23)cc1` belongs 1.2 µg/mL (≈ 3.47 µM); to `Cc1ccc(NC(=O)CN(C)CCOc2ccccc2)c([N+](=O)[O-])c1`, less than 0.2 µg/mL; to `O=C1C/C(=C\c2c(F)cccc2Cl)N2CCC1CC2`, 39.7 µg/mL (≈ 142 µM).
Compound `O=C(NC1CCCCCCC1)c1ccc(Br)o1` returned a solubility (kinetic) of 37.2 µg/mL (≈ 124 µM).
Take `O=C(COC(=O)C1CC1)Nc1ccc(Cl)cn1`: the kinetic solubility was more than 38.2 µg/mL.
As for `COc1ccc(C(=O)Nc2ccc3nc(C)sc3c2)cc1OC`, the figure is 3 µg/mL (≈ 9.14 µM); as for `CN(c1ccccc1)S(=O)(=O)c1ccc(Cl)c(C(=O)NCc2ccco2)c1`, 47.2 µg/mL (≈ 117 µM); as for `CCC(=O)Nc1ccc(S(=O)(=O)N2CCc3ccccc32)cc1`, 41.2 µg/mL (≈ 125 µM).
Compound `CCN(C(=O)CSc1nnc(C)c(=O)[nH]1)c1cccc2ccccc12` had a kinetic solubility of more than 53.2 µg/mL.
Consider `CCS(=O)(=O)N1CCC(C(=O)O)CC1`, for which the solubility (kinetic) was more than 33.2 µg/mL.
As for `CCOc1ccc(-c2noc(-c3cccnc3)n2)cc1OCC`, the figure is 2.2 µg/mL (≈ 7.07 µM).
`O=C(/C=C/c1ccc(S(=O)(=O)N2CCOCC2)cc1)NC(CO)C(O)c1ccc([N+](=O)[O-])cc1` (stereo not drawn): the kinetic solubility was more than 73.7 µg/mL.
`Cc1ccc(CNCc2ccco2)cc1.O=C(O)C(=O)O` gave a kinetic solubility of more than 43.7 µg/mL.
To `O=C(NCc1ccncc1)c1cc(C(=O)C2CC2)c[nH]1` belongs 36.2 µg/mL (≈ 134 µM); to `COc1ccc(-c2c(C#N)c(N)nc(Sc3ccc(Cl)cc3)c2C#N)cc1`, less than 0.2 µg/mL.
Consider `CNC(=O)c1cc2cc(Br)ccc2s1`, for which the solubility (kinetic) turned out to be 8.1 µg/mL (≈ 30 µM).
`COC(=O)c1sccc1NC(=O)Nc1cccc(C(C)=O)c1`: the kinetic solubility was determined as 19.1 µg/mL (≈ 60 µM).
In turn, `CCOc1ccc(C(C)=O)cc1CN1C(=O)NC(C)(C2CC2)C1=O` (stereo not drawn) registered a solubility (kinetic) of 41.3 µg/mL (≈ 125 µM).
For the compound `CS(=O)(=O)/C(C#N)=C/c1c(-c2ccccc2)nc2n1CCS2`, the solubility (kinetic) amounted to 2.4 µg/mL (≈ 7.24 µM).
On to `N#C/C(=C\c1ccccc1OCC(=O)O)c1nc2ccccc2[nH]1`, for which the solubility (kinetic) was more than 47.9 µg/mL.
Turning to `CC(CNC(=O)c1ccco1)NC(=O)c1ccco1` (stereo not drawn), the kinetic solubility was determined as 38.8 µg/mL (≈ 148 µM).
On to `COc1ccc(C(=O)Nc2ccc(Nc3ccccc3)cc2)cc1[N+](=O)[O-]`, for which the solubility (kinetic) is less than 0.3 µg/mL.
Consider `COC(=O)c1sccc1NC(=O)Nc1cc(C)ccc1OC`, for which the kinetic solubility stood at 11.1 µg/mL (≈ 34.6 µM).
As to `CC(=O)N(Cc1cc(=O)[nH]c2ccccc12)c1ccc(C)cc1C`, the solubility (kinetic) is more than 48.1 µg/mL.
On to `Cc1ccc(OCC(=O)O/N=C(\N)c2ccncc2)cc1C`, for which the solubility (kinetic) is 18.6 µg/mL (≈ 62.1 µM).
`O=C1c2cccc3cccc(c23)C(=O)N1c1ccccn1` had a kinetic solubility of 40.4 µg/mL (≈ 147 µM).
As to `Cc1csc(NC(=O)c2cccc([N+](=O)[O-])c2C(=O)O)n1`, the kinetic solubility is more than 46.1 µg/mL.
To `CC1Cc2ccccc2N1C(=O)CN1CCC(C(N)=O)CC1` (stereo not drawn) belongs more than 45.2 µg/mL.
Compound `Cc1ccc(S(=O)(=O)N2CCN(c3ncnc4scc(-c5ccccc5)c34)CC2)cc1` had a solubility (kinetic) of 0.9 µg/mL (≈ 2 µM).
Turning to `Cc1ccnc(SCC(=O)c2cc3ccccc3o2)n1`, the solubility (kinetic) stood at 1.3 µg/mL (≈ 4.57 µM).
As to `O=C(N1CCCC1)N1CCN(S(=O)(=O)c2ccccc2)CC1`, the solubility (kinetic) was 34.4 µg/mL (≈ 106 µM).
`Cc1cccc(NC(=O)Nc2ccc(F)cc2)n1`: the kinetic solubility is 1.6 µg/mL (≈ 6.52 µM).
Regarding `S=C(NCc1ccncc1)Nc1cc(Cl)cc(Cl)c1`, the kinetic solubility stood at 5.6 µg/mL (≈ 17.9 µM).
`CC1CN=C(NCCc2ccccc2)S1` (stereo not drawn) showed a solubility (kinetic) of more than 33 µg/mL.
`COc1ccc(NS(=O)(=O)c2cccc(NC(=O)COc3ccccc3[N+](=O)[O-])c2)cc1`: the kinetic solubility was found to be 2.9 µg/mL (≈ 6.34 µM).
As for `Cc1ccc(N2C(=O)CN(Cc3cccs3)C2=S)cc1C`, the figure is less than 0.3 µg/mL; as for `CCOc1ccc2nc(SCC(=O)NCc3ccc(S(N)(=O)=O)cc3)[nH]c2c1`, 35.2 µg/mL (≈ 83.7 µM); as for `CNC(=O)c1c(NC(=O)c2ccco2)sc2c1CCCC2`, 2.7 µg/mL (≈ 8.87 µM).
Regarding `COc1ccc(C(=O)Nc2ccc3ccccc3c2)cc1`, the kinetic solubility was less than 0.6 µg/mL.
Compound `CCCC1(c2ccccc2)NC(=O)N(C/C=C/Cl)C1=O` (stereo not drawn) had a solubility (kinetic) of more than 43.9 µg/mL.
To `CSc1ncc(Cl)c(C(=O)Nc2cc(C)ccc2C)n1` belongs less than 0.2 µg/mL.
As for `CNC1(C)[C@H]2CC[C@H](C2)C1(C)C.Cl` (stereo partly drawn), the kinetic solubility was more than 30.6 µg/mL.
As for `O=C(CN1CCCC1c1cccs1)Nc1cc(S(=O)(=O)N2CCCC2)ccc1Cl` (stereo not drawn), the figure is 1.6 µg/mL (≈ 3.52 µM).
Compound `CC(C)C(=O)Nc1ccc2oc(=O)ccc2c1` displayed a solubility (kinetic) of 33.5 µg/mL (≈ 145 µM).
Consider `Nc1cc(S(=O)(=O)Nc2ccc(Cl)cc2)ccc1N1CCOCC1`, for which the solubility (kinetic) is more than 55.2 µg/mL.
In turn, `CCc1nc(SCC(=O)Nc2ccc(N(C)C)cc2)n[nH]1` gave a solubility (kinetic) of more than 45.8 µg/mL.
`O=C(Nc1nccs1)c1cc2cc(Cl)ccc2oc1=O` came in with a solubility (kinetic) of 1.5 µg/mL (≈ 4.89 µM).
`CCS(=O)(=O)N1CCN=C1SCc1ccc(F)cc1` returned a solubility (kinetic) of 39.9 µg/mL (≈ 132 µM).
`O=C(Cc1ccccc1)NCC(=O)N1CCCCC1` gave a kinetic solubility of more than 39.1 µg/mL.
For the compound `CCCCOc1ccc(C(=O)NCCC(=O)NCCCC(=O)OCC)cc1`, the kinetic solubility is more than 56.8 µg/mL.
`O=C1N/C(=C/c2cccs2)C(=O)N1Cc1ccc(F)cc1` gave a kinetic solubility of less than 0.3 µg/mL.
Regarding `NS(=O)(=O)c1ccc(NC(=O)c2cccc3ccccc23)cc1`, the solubility (kinetic) is 3.1 µg/mL (≈ 9.5 µM).
`O=C(c1ccc(F)c(F)c1)N1CCCc2ccccc21` had a kinetic solubility of 37.9 µg/mL (≈ 139 µM).
To `O=C(Nc1ccc2[nH]c(=O)[nH]c2c1)c1ccc(Br)o1` belongs 8.3 µg/mL (≈ 25.8 µM).
